According to PubChem BioAssay (NCI):
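Test compounds were applied to cells in 96-well plates for 48 hours at 5 doses. At the TGI there is no net growth.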

Legend:
Experiment in all cases: DTP human tumour cell line panel, 48 h
786-0 renal = system: 786-0 renal
A498 renal = system: A498 renal
A549 NSCLC = system: A549 NSCLC
ACHN renal = system: ACHN renal
BT-549 breast = system: BT-549 breast
CAKI-1 renal = system: CAKI-1 renal
CCRF-CEM leukemia = system: CCRF-CEM leukemia
COLO 205 colon = system: COLO 205 colon
DU-145 prostate = system: DU-145 prostate
EKVX NSCLC = system: EKVX NSCLC
HCC-2998 colon = system: HCC-2998 colon
HCT-116 colon = system: HCT-116 colon
HCT-15 colon = system: HCT-15 colon
HL-60(TB) leukemia = system: HL-60(TB) leukemia
HOP-62 NSCLC = system: HOP-62 NSCLC
HOP-92 NSCLC = system: HOP-92 NSCLC
HS 578T breast = system: HS 578T breast
HT29 colon = system: HT29 colon
IGROV1 ovarian = system: IGROV1 ovarian
K-562 leukemia = system: K-562 leukemia
KM12 colon = system: KM12 colon
LOX IMVI melanoma = system: LOX IMVI melanoma
M14 melanoma = system: M14 melanoma
MALME-3M melanoma = system: MALME-3M melanoma
MCF7 breast = system: MCF7 breast
MDA-MB-231 breast = system: MDA-MB-231 breast
MDA-MB-435 = system: MDA-MB-435
MDA-N = system: MDA-N
MOLT-4 leukemia = system: MOLT-4 leukemia
NCI-H226 lung = system: NCI-H226 lung
NCI-H23 lung = system: NCI-H23 lung
NCI-H460 lung = system: NCI-H460 lung
NCI-H522 lung = system: NCI-H522 lung
NCI/ADR-RES ovarian = system: NCI/ADR-RES ovarian
OVCAR-3 ovarian = system: OVCAR-3 ovarian
OVCAR-4 ovarian = system: OVCAR-4 ovarian
OVCAR-5 ovarian = system: OVCAR-5 ovarian
OVCAR-8 ovarian = system: OVCAR-8 ovarian
PC-3 prostate = system: PC-3 prostate
RPMI-8226 leukemia = system: RPMI-8226 leukemia
RXF 393 renal = system: RXF 393 renal
SF-268 CNS = system: SF-268 CNS
SF-295 CNS = system: SF-295 CNS
SF-539 CNS = system: SF-539 CNS
SK-MEL-2 melanoma = system: SK-MEL-2 melanoma
SK-MEL-28 melanoma = system: SK-MEL-28 melanoma
SK-MEL-5 melanoma = system: SK-MEL-5 melanoma
SK-OV-3 ovarian = system: SK-OV-3 ovarian
SN12C renal = system: SN12C renal
SNB-19 CNS = system: SNB-19 CNS
SNB-75 CNS = system: SNB-75 CNS
SR leukemia = system: SR leukemia
SW-620 colon = system: SW-620 colon
T-47D breast = system: T-47D breast
TK-10 renal = system: TK-10 renal
U251 CNS = system: U251 CNS
UACC-257 melanoma = system: UACC-257 melanoma
UACC-62 melanoma = system: UACC-62 melanoma
UO-31 renal = system: UO-31 renal
DLD-1 colon = system: DLD-1 colon
DMS 114 small cell lung = system: DMS 114 small cell lung
DMS 273 small cell lung = system: DMS 273 small cell lung
KM20L2 colon = system: KM20L2 colon
LXFL 529 NSCLC = system: LXFL 529 NSCLC
M19-MEL melanoma = system: M19-MEL melanoma
SNB-78 CNS = system: SNB-78 CNS

Oc1ccccc1/C=N/c1nc2cc3sc(/N=C/c4ccccc4O)nc3cc2s1
TGI (786-0 renal): > 100 µM
TGI (A498 renal): > 100 µM
TGI (A549 NSCLC): > 100 µM
TGI (ACHN renal): > 100 µM
TGI (BT-549 breast): > 100 µM
TGI (CAKI-1 renal): > 100 µM
TGI (CCRF-CEM leukemia): > 100 µM
TGI (COLO 205 colon): 20.7 µM
TGI (DU-145 prostate): > 100 µM
TGI (EKVX NSCLC): > 100 µM
TGI (HCC-2998 colon): > 100 µM
TGI (HCT-116 colon): > 100 µM
TGI (HCT-15 colon): > 100 µM
TGI (HL-60(TB) leukemia): > 73.3 µM
TGI (HOP-62 NSCLC): > 100 µM
TGI (HOP-92 NSCLC): > 100 µM
TGI (HS 578T breast): > 89 µM
TGI (HT29 colon): > 100 µM
TGI (IGROV1 ovarian): > 100 µM
TGI (K-562 leukemia): > 100 µM
TGI (KM12 colon): > 100 µM
TGI (LOX IMVI melanoma): > 100 µM
TGI (M14 melanoma): > 100 µM
TGI (MALME-3M melanoma): > 100 µM
TGI (MCF7 breast): > 100 µM
TGI (MDA-MB-231 breast): > 100 µM
TGI (MDA-MB-435): > 100 µM
TGI (MDA-N): > 100 µM
TGI (MOLT-4 leukemia): 81.2 µM
TGI (NCI-H226 lung): 98.5 µM
TGI (NCI-H23 lung): > 100 µM
TGI (NCI-H460 lung): > 100 µM
TGI (NCI-H522 lung): > 100 µM
TGI (NCI/ADR-RES ovarian): > 100 µM
TGI (OVCAR-3 ovarian): > 100 µM
TGI (OVCAR-4 ovarian): > 100 µM
TGI (OVCAR-5 ovarian): > 100 µM
TGI (OVCAR-8 ovarian): > 100 µM
TGI (PC-3 prostate): > 100 µM
TGI (RPMI-8226 leukemia): > 100 µM
TGI (RXF 393 renal): > 85.3 µM
TGI (SF-268 CNS): > 100 µM
TGI (SF-295 CNS): > 100 µM
TGI (SF-539 CNS): > 100 µM
TGI (SK-MEL-2 melanoma): > 100 µM
TGI (SK-MEL-28 melanoma): > 100 µM
TGI (SK-MEL-5 melanoma): > 100 µM
TGI (SK-OV-3 ovarian): > 100 µM
TGI (SN12C renal): > 100 µM
TGI (SNB-19 CNS): > 100 µM
TGI (SNB-75 CNS): > 100 µM
TGI (SR leukemia): > 42.1 µM
TGI (SW-620 colon): > 100 µM
TGI (T-47D breast): > 100 µM
TGI (TK-10 renal): > 100 µM
TGI (U251 CNS): > 100 µM
TGI (UACC-257 melanoma): > 100 µM
TGI (UACC-62 melanoma): > 100 µM
TGI (UO-31 renal): > 100 µM

O=C1C=CC(=O)N1Nc1ccc([N+](=O)[O-])cc1[N+](=O)[O-]
TGI (786-0 renal): > 100 µM
TGI (A498 renal): > 100 µM
TGI (A549 NSCLC): > 100 µM
TGI (ACHN renal): > 100 µM
TGI (CAKI-1 renal): > 71 µM
TGI (CCRF-CEM leukemia): > 34.3 µM
TGI (COLO 205 colon): > 60.7 µM
TGI (DLD-1 colon): > 100 µM
TGI (DMS 114 small cell lung): > 100 µM
TGI (DMS 273 small cell lung): > 100 µM
TGI (EKVX NSCLC): > 100 µM
TGI (HCC-2998 colon): > 100 µM
TGI (HCT-116 colon): > 100 µM
TGI (HCT-15 colon): > 100 µM
TGI (HL-60(TB) leukemia): > 51.5 µM
TGI (HOP-62 NSCLC): > 100 µM
TGI (HOP-92 NSCLC): > 77 µM
TGI (HT29 colon): > 100 µM
TGI (IGROV1 ovarian): > 100 µM
TGI (K-562 leukemia): > 66.2 µM
TGI (KM12 colon): > 100 µM
TGI (KM20L2 colon): > 100 µM
TGI (LOX IMVI melanoma): > 100 µM
TGI (LXFL 529 NSCLC): > 64.6 µM
TGI (M14 melanoma): 40 µM
TGI (M19-MEL melanoma): > 100 µM
TGI (MALME-3M melanoma): 31.1 µM
TGI (MOLT-4 leukemia): > 75.2 µM
TGI (NCI-H226 lung): > 100 µM
TGI (NCI-H23 lung): > 100 µM
TGI (NCI-H460 lung): > 100 µM
TGI (NCI-H522 lung): > 58.9 µM
TGI (OVCAR-3 ovarian): > 100 µM
TGI (OVCAR-4 ovarian): > 79.9 µM
TGI (OVCAR-5 ovarian): > 100 µM
TGI (OVCAR-8 ovarian): > 100 µM
TGI (RPMI-8226 leukemia): > 68.7 µM
TGI (SF-268 CNS): > 100 µM
TGI (SF-295 CNS): > 100 µM
TGI (SF-539 CNS): > 100 µM
TGI (SK-MEL-2 melanoma): > 100 µM
TGI (SK-MEL-28 melanoma): > 59.2 µM
TGI (SK-MEL-5 melanoma): > 100 µM
TGI (SK-OV-3 ovarian): > 100 µM
TGI (SN12C renal): > 100 µM
TGI (SNB-19 CNS): > 100 µM
TGI (SNB-75 CNS): > 100 µM
TGI (SNB-78 CNS): > 100 µM
TGI (SR leukemia): > 63.1 µM
TGI (SW-620 colon): > 100 µM
TGI (TK-10 renal): > 100 µM
TGI (U251 CNS): > 100 µM
TGI (UACC-257 melanoma): > 100 µM
TGI (UACC-62 melanoma): > 100 µM
TGI (UO-31 renal): > 100 µM
